Measured values from patent US8765748B2, “Indazolyl, benzimidazolyl, benzotriazolyl substituted indolinone derivatives as kinase inhibitors useful in the treatment of cancer” (University Health Network, priority 2007, dated 2014).
Structures can show the parent of a compound that is named as a salt.

target: T1, Aurora B (Homo sapiens, UniProt Q96GD4); experiment: Aurora B Inhibition Assay (Z-Lyte); type: biochemical; settings: 128 μM ATP, 28 nM Aurora B; read-out: Aurora B IC50 Ranges
T1 construct: purchased Invitrogen PV3970
Experimental: Aurora B inhibition was determined using the Z-Lyte assay kit from Invitrogen. The assay was performed using the recommended manufacturer's instructions with 128 μM ATP and 28 nM Aurora B (Invitrogen cat #PV3970). The % inhibition values were determined according to the manufacturer's directions and IC50 values were obtained using a non-linear 4 point logistic curve fit (XLfit4, IDBS)

T1 sequence (Q96GD4 whole entry): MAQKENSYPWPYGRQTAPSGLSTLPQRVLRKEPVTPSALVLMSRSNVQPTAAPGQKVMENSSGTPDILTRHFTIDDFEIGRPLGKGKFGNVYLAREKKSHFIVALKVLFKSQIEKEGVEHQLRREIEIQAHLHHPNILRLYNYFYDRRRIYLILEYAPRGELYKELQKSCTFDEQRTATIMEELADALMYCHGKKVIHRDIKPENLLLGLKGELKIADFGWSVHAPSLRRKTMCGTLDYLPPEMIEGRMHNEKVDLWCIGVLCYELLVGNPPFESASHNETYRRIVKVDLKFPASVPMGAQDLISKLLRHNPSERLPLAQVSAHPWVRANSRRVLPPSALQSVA

Structure (SMILES)	IC50 [µM]
C/C(=C1\C(=O)Nc2ccccc21)c1ccc2cn[nH]c2c1 [Example A51, (E)-3-(1-(1H-indazol-6-yl)ethylidene)indolin-2-one]	5 to 50
CC(C)(C)OC(=O)Nc1ccc2c(c1)/C(=C\c1ccc3c(/C=C/c4ccncc4)n[nH]c3c1)C(=O)N2 [Example A121, tert-butyl(E)-2-oxo-3-((3-((E)-2-(pyridin-4-yl)vinyl)-1H-indazol-6-yl)methylene)indolin-5-ylcarbamate]	< 5
CN(C)CCCNc1ccc2c(c1)C(=Cc1ccc3c(/C=C/c4ccncc4)n[nH]c3c1)C(=O)N2 (mixture of isomers) [Example A130, (E and Z)-5-(3-(dimethylamino)propylamino)-3-((3-((E)-2-(pyridin-4-yl)-vinyl)-1H-indazol-6-yl)methylene)indolin-2-one]	< 5
COc1ccc2c(c1)/C(=C\c1ccc3c(/C=C/c4ccc(CN(C)C)cc4)n[nH]c3c1)C(=O)N2 [Example A136a, (E)-3-((3-(4-((dimethylamino)methyl)styryl)-1H-indazol-6-yl)-methylene)-5-methoxyindolin-2-one 2,2,2-trifluoroacetate]	< 5

target: T2, human PLK4 (Homo sapiens, UniProt O00444); experiment: PLK4 Inhibition Assay (indirect ELISA); type: biochemical; settings: 15 μM ATP, 4 nM GST-PLK4; read-out: PLK4 IC50 Ranges
T2 construct: amino terminal GST fusion of residues 1-391 of human PLK4; made in house; host or cells: E. coli
T2 sequence (O00444 1-391): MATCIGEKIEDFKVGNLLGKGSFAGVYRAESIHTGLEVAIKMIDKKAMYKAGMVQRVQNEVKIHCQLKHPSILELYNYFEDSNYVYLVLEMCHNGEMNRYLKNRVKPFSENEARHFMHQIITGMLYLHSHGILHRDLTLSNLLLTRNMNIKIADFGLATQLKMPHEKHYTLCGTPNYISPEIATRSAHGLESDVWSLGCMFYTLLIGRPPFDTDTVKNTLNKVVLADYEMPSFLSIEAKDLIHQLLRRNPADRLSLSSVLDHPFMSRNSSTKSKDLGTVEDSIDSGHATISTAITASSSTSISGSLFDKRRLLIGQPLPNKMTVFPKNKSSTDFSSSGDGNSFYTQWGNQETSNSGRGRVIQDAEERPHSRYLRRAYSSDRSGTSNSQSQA
Experimental: The protein was purified from clarified cell extracts after induction at 15° C. overnight using glutathione sepharose, gel permeation chromatography, and ion exchange (Resource Q). The resulting protein was dephosphorylated with lambda phosphatase (NEB cat #P0753), and resolved from the phosphatase using gluthione sepharose. The dephosphorylated GST-PLK4 was stored in aliquots at −80° C. until use. PLK4 activity was measured using an indirect ELISA detection system. […] Compounds were pre-incubated in the presence of enzyme for 15 minutes prior to addition of ATP and the activity remaining quantified using the above described activity assay. […] The IC50 value was determined using a non-linear 4 point logistic curve fit (XLfit4, IDBS) with the formula; (A+(B/(1+((x/C)^D)))), where A=background value, B=range, C=inflection point, D=curve fit parameter.

Structure (SMILES)	IC50 [µM]
O=C1Nc2c(Br)cccc2/C1=C\c1ccc2cn[nH]c2c1 [Example A44, (E)-3-((1H-indazol-6-yl)methylene)-7-bromoindolin-2-one]	< 5
CC(C)NC(=O)Nc1cccc2c1NC(=O)/C2=C/c1ccc2cn[nH]c2c1 [Example A48, (E)-1-(3-((1H-indazol-6-yl)methylene)-2-oxoindolin-7-yl)-3-isopropyl-urea]	< 5
O=C1Nc2ccccc2/C1=C\c1ccc2c(-c3nccs3)n[nH]c2c1 [Example A92, (E)-3-((3-(thiazol-2-yl)-1H-indazol-6-yl)methylene)indolin-2-one]	< 5
O=C1Nc2ccccc2C1=Nc1ccc2cn[nH]c2c1 [Example A73, (E and Z)-3-(1H-indazol-6-ylimino)indolin-2-one]	< 5
O=C1Nc2ccccc2C1=Cc1ccc2c(-c3cnc4ccccc4c3)n[nH]c2c1 (mixture of isomers) [Example A95, (E and Z)-3-((3-(quinolin-3-yl)-1H-indazol-6-yl)methylene)indolin-2-one]	< 5
O=C1Nc2ccccc2/C1=C\c1ccc2c(C3CC3)n[nH]c2c1 [Example A102, (E)-3-((3-cyclopropyl-1H-indazol-6-yl)methylene)indolin-2-one]	< 5
O=C1Nc2ccc(Cl)nc2/C1=C\c1ccc2cn[nH]c2c1 [Example A134, (E)-3-((1H-indazol-6-yl)methylene)-5-chloro-1H-pyrrolo[3,2-b]pyridin-2(3H)-one]	< 5
O=C1Nc2ccccc2C1=Cc1ccc2c(/C=C/c3ccc(CN4CCOCC4)cc3)n[nH]c2c1 (mixture of isomers) [Example A154, (E and Z)-3-((3-(4-(morpholinomethyl)styryl)-1H-indazol-6-yl)-methylene)indolin-2-one]	< 5
O=C1Nc2ccccc2/C1=C\c1cc(Cl)c2cn[nH]c2c1 [Example A52, (E)-3-((4-chloro-1H-indazol-6-yl)methylene)indolin-2-one]	< 5
COc1cc2c(cc1OC)/C(=C\c1ccc3cn[nH]c3c1)C(=O)N2 [Example A135, (E)-3-((1H-indazol-6-yl)methylene)-5,6-dimethoxyindolin-2-one]	< 5
C/C(=C1\C(=O)Nc2ccccc21)c1ccc2cn[nH]c2c1 [Example A51, (E)-3-(1-(1H-indazol-6-yl)ethylidene)indolin-2-one]	< 5
O=C1Nc2ncccc2/C1=C\c1ccc2[nH]ncc2c1 [Example A68, (E)-3-((1H-indazol-5-yl)methylene)-1H-pyrrolo[2,3-b]pyridin-2(3H)-one]	< 5
CC(C)(C)OC(=O)Nc1ccc2c(c1)/C(=C\c1ccc3c(/C=C/c4ccncc4)n[nH]c3c1)C(=O)N2 [Example A121, tert-butyl(E)-2-oxo-3-((3-((E)-2-(pyridin-4-yl)vinyl)-1H-indazol-6-yl)methylene)indolin-5-ylcarbamate]	< 5
CN(C)CCCNc1ccc2c(c1)C(=Cc1ccc3c(/C=C/c4ccncc4)n[nH]c3c1)C(=O)N2 (mixture of isomers) [Example A130, (E and Z)-5-(3-(dimethylamino)propylamino)-3-((3-((E)-2-(pyridin-4-yl)-vinyl)-1H-indazol-6-yl)methylene)indolin-2-one]	< 5
O=CNc1cccc2c1NC(=O)C2=Cc1ccc2cn[nH]c2c1 (mixture of isomers) [Example A50, (E and Z)—N-(3-((1H-indazol-6-yl)methylene)-2-oxoindolin-7-yl)formamide]	< 5
Cn1ccnc1/C=C/c1n[nH]c2cc(C=C3C(=O)Nc4ccccc43)ccc12 (mixture of isomers) [Example A105, (E and Z)-3-((3-((E)-2-(1-methyl-1H-imidazol-2-yl)vinyl)-1H-indazol-6-yl)methylene)indolin-2-one]	< 5
Cc1ccc2c(c1)C(=Nc1ccc3cn[nH]c3c1)C(=O)N2 [Example A74, (E and Z)-3-(1H-indazol-6-ylimino)-5-methylindolin-2-one]	< 5
Cc1ccc2c(c1)C(=Nc1ccc3[nH]ncc3c1)C(=O)N2 [Example A78, (E and Z)-3-(1H-indazol-5-ylimino)-5-methylindolin-2-one]	< 5

Structure (SMILES)	IC50 [µM]
O=C1Nc2ccc(C(F)(F)F)cc2C1=Cc1ccc2cn[nH]c2c1 (mixture of isomers) [Example A82, (E and Z)-3-((1H-indazol-6-yl)methylene)-5-(trifluoromethyl)-indolin-2-one]	< 5
CN1CCN(C(=O)/C=C/c2n[nH]c3cc(C=C4C(=O)Nc5ccccc54)ccc23)CC1 (mixture of isomers) [Example A66, (E and Z)-3-((3-((E)-3-(4-methylpiperazin-1-yl)-3-oxoprop-1-enyl)-1H-indazol-6-yl)methylene)indolin-2-one]	< 5
Nc1n[nH]c2ccc(C=C3C(=O)Nc4ccccc43)cc12 (mixture of isomers) [Example A40, (E & Z)-3-((3-amino-1H-indazol-5-yl)methylene)indolin-2-one]	5 to 50
O=C1Nc2cc(Br)ccc2C1=Nc1ccc2cn[nH]c2c1 [Example A76, (E and Z)-3-(1H-indazol-6-ylimino)-6-bromoindolin-2-one]	5 to 50
O=C1Nc2ccccc2C1=Cc1ccc2[nH]nc(/C=C/c3ccncc3)c2c1 (mixture of isomers) [Example A131, (E and Z)-3-((3-((E)-2-(pyridin-4-yl)vinyl)-1H-indazol-5-yl)-methylene)indolin-2-one hydrochloride]	< 5
COC(=O)c1cccc2c1NC(=O)C2=Cc1ccc2cn[nH]c2c1 (mixture of isomers) [Example A46, (E and Z)-methyl 3-((1H-indazol-6-yl)methylene)-2-oxoindoline-7-carboxylate]	< 5
O=C1Nc2ccccc2C1=Cc1ccc2c(-c3ccn[nH]3)n[nH]c2c1 (mixture of isomers) [Example A98, (E and Z)-3-((3-(1H-pyrazol-5-yl)-1H-indazol-6-yl)methylene)-indolin-2-one]	< 5
CN1CCN(c2ccc(-c3n[nH]c4ccc(C=C5C(=O)Nc6ccccc65)cc34)cn2)CC1 (mixture of isomers) [Example A155, (E and Z)-3-((3-(6-(4-methylpiperazin-1-yl)pyridin-3-yl)-1H-indazol-5-yl)methylene)indolin-2-one]	< 5
O=C1Nc2ccccc2/C1=C\c1ccc2c(/C=C/c3ccc(C(F)(F)F)cc3)n[nH]c2c1 [Example A65, (E & Z)-3-((3-((E)-4-(trifluoromethyl)styryl)-1H-indazol-6-yl)-methylene)-indolin-2-one]	< 5
O=C1Nc2ccc(F)cc2C1=Nc1ccc2cn[nH]c2c1 [Example A75, (E and Z)-3-(1H-indazol-6-ylimino)-5-fluoroindolin-2-one]	5 to 50
O=C1Nc2ccccc2C1=Cc1ccc2c(-c3cc4ccccc4[nH]3)n[nH]c2c1 (mixture of isomers) [Example A90, (E and Z)-3-((3-(1H-indol-2-yl)-1H-indazol-6-yl)methylene)indolin-2-one]	< 5
O=C1Nc2ccc(F)cc2C1=Nc1ccc2[nH]ncc2c1 [Example A79, (E and Z)-3-(1H-indazol-5-ylimino)-5-fluoroindolin-2-one]	5 to 50
O=C1Nc2cc(-c3cccnc3)ccc2C1=Cc1ccc2cn[nH]c2c1 (mixture of isomers) [Example A28, (E and Z)-3-(3-((1H-indazol-6-yl)methylene)-2-oxoindolin-6-yl)pyridinium 2,2,2-trifluoroacetate]	5 to 50
O=C1Nc2ccccc2/C1=C\c1ccc2c(I)n[nH]c2c1 [Example A39, (E)-3-((3-iodo-1H-indazol-6-yl)methylene)indolin-2-one]	< 5
O=C1Nc2ccccc2C1=Nc1ccc2[nH]ncc2c1 [Example A77, (E and Z)-3-(1H-indazol-5-ylimino)indolin-2-one]	5 to 50
O=C1Nc2ccccc2/C1=C/c1cc(Br)c2cn[nH]c2c1 [Example A53b, (Z)-3-((4-bromo-1H-indazol-6-yl)methylene)indolin-2-one]	< 5
O=C1Nc2cccc(Br)c2/C1=C/c1ccc2cn[nH]c2c1 [Example A133, (Z)-3-((1H-indazol-6-yl)methylene)-4-bromoindolin-2-one]	< 5
